The source of these data is PubChem BioAssay (NCI).

Some test systems named below: MDA-N; OVCAR-4 ovarian; SK-MEL-2 melanoma; NCI-H522 lung; CAKI-1 renal; EKVX NSCLC; ACHN renal; MDA-MB-231 breast; HL-60(TB) leukemia; HS 578T breast.
Holding throughout (experiment): inhibition of tumour cell growth, NCI panel, 48 h

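48-hour exposure; five concentrations; linearly interpolated endpoints. Abbreviation: GI50, concentration required for 50% inhibition of growth. TGI marks complete inhibition of growth.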

As to `O=C1C=C(NCCc2cc(Br)c(O)c(Br)c2)C(=O)c2[nH]cnc21`, the TGI in the assay on MDA-N is 33.6 µM; in the assay with OVCAR-4 ovarian, 94.9 µM; in the assay with SK-MEL-2 melanoma, over 100 µM; in the assay on NCI-H522 lung, 87.4 µM; in the assay with CAKI-1 renal, over 100 µM; with EKVX NSCLC, over 100 µM. Further, the TGI is over 100 µM with ACHN renal and 67.9 µM with MDA-MB-231 breast.

Consider `CCc1cc2c(oc3c4ccccc4ccc23)c(=O)[nH]1`, for which the TGI in the assay with MDA-N, in the assay with HL-60(TB) leukemia, in the assay on OVCAR-4 ovarian, with NCI-H522 lung, in the assay on HS 578T breast and in the assay on EKVX NSCLC was over 10 µM each time. In the assay on ACHN renal, this compound gave a TGI of over 10 µM.

With `Cc1cnc2[nH]c(-c3cccc(Cl)c3)cc(=O)c2c1`, the TGI is 0.609 µM in the assay on HL-60(TB) leukemia; over 100 µM with OVCAR-4 ovarian; 97.4 µM in the assay with SK-MEL-2 melanoma; 15 µM with NCI-H522 lung; 20.5 µM with HS 578T breast; 59.7 µM with CAKI-1 renal. Moreover, the values for the TGI in the assay with EKVX NSCLC, in the assay on ACHN renal and in the assay with MDA-MB-231 breast were over 100 µM, over 100 µM and 1.46 µM, respectively.

For the compound `COc1ccc(/C=C/C(c2cc(OC)c(OC)c(OC)c2)n2cncn2)cc1O` (stereo not given), the GI50 was 0.0245 µM in the assay with HL-60(TB) leukemia; 7.05 µM in the assay with OVCAR-4 ovarian; 0.0438 µM with SK-MEL-2 melanoma; 2.83 µM in the assay on CAKI-1 renal; 6.07 µM in the assay with EKVX NSCLC; 0.0578 µM with ACHN renal. The GI50 in the assay with MDA-MB-231 breast is 3.02 µM. Besides, the TGI with HL-60(TB) leukemia is 0.0627 µM; in the assay on OVCAR-4 ovarian, over 100 µM; with SK-MEL-2 melanoma, over 100 µM; with CAKI-1 renal it was over 100 µM; with EKVX NSCLC, over 100 µM; in the assay on ACHN renal it was over 100 µM. The compound further came in with a TGI with MDA-MB-231 breast of over 100 µM.

Consider `C/C(=N\NC(=O)N/N=C(\C)c1ccccn1)c1ccccn1`, for which the TGI in the assay with MDA-N, in the assay on HL-60(TB) leukemia, with OVCAR-4 ovarian, in the assay on SK-MEL-2 melanoma, in the assay on NCI-H522 lung and in the assay on HS 578T breast was over 100 µM in each case. The TGI with CAKI-1 renal, with EKVX NSCLC and in the assay with ACHN renal was over 100 µM in each case.

With `O=Cc1cc(O)c(O)c(/C=N/n2c3ccccc3c3ccccc32)c1`, the TGI was 6.32 µM with HL-60(TB) leukemia; 13.5 µM in the assay on OVCAR-4 ovarian; 7.03 µM in the assay on NCI-H522 lung; over 100 µM in the assay on HS 578T breast; 36.6 µM in the assay on CAKI-1 renal; 43.5 µM in the assay with EKVX NSCLC. Further, the values for the TGI in the assay on ACHN renal and in the assay with MDA-MB-231 breast were 21.1 µM and 30.2 µM, respectively.

Regarding `CC(CC(C)(C)[N+](C)(C)C)[N+](C)(C)C` (stereo not given), the TGI in the assay on MDA-N, in the assay with HL-60(TB) leukemia, in the assay on OVCAR-4 ovarian, in the assay with NCI-H522 lung, with CAKI-1 renal and in the assay with EKVX NSCLC was over 100 µM throughout. In the assay on ACHN renal, this compound returned a TGI of over 100 µM.

Turning to `COc1c(Cl)c(Cl)c(OC)c2c1C(=O)C=CC2=O`, the TGI came to 5.09 µM in the assay with HL-60(TB) leukemia; 28.9 µM in the assay with OVCAR-4 ovarian; 33.9 µM in the assay on SK-MEL-2 melanoma; 31.7 µM in the assay on NCI-H522 lung; 59.1 µM in the assay on CAKI-1 renal; 31.8 µM with EKVX NSCLC. This compound yielded a TGI with ACHN renal of 29.2 µM.

Turning to `O=C(NNCc1ccccc1O)c1ccccc1O`, the TGI with MDA-N is over 100 µM; in the assay with HL-60(TB) leukemia, 4.17 µM; in the assay with OVCAR-4 ovarian it was over 100 µM; with SK-MEL-2 melanoma it was 25.8 µM; in the assay on NCI-H522 lung it was over 100 µM; with CAKI-1 renal, over 100 µM. Further, the TGI in the assay on EKVX NSCLC, with ACHN renal and in the assay on MDA-MB-231 breast was over 100 µM in each case.

On to `Clc1ccc(-c2nn3c(C45CC6CC(CC(C6)C4)C5)nnc3s2)cc1`, for which the TGI in the assay on HL-60(TB) leukemia, in the assay with OVCAR-4 ovarian, in the assay with SK-MEL-2 melanoma, in the assay on NCI-H522 lung, in the assay with HS 578T breast and in the assay on CAKI-1 renal was over 100 µM each time. Moreover, the TGI in the assay with EKVX NSCLC, with ACHN renal and in the assay on MDA-MB-231 breast was over 100 µM each time.

Regarding `NC(CNc1ccc(O)cc1)C(=O)O` (stereo not given), the TGI was 95.7 µM in the assay on HL-60(TB) leukemia; 31.7 µM with OVCAR-4 ovarian; over 100 µM in the assay with SK-MEL-2 melanoma; over 100 µM in the assay on NCI-H522 lung; over 100 µM in the assay with CAKI-1 renal; over 100 µM in the assay on EKVX NSCLC. In the assay on ACHN renal, this compound registered a TGI of over 100 µM.

Consider `c1cn[nH]c1`, for which the TGI with MDA-N, in the assay on HL-60(TB) leukemia, with OVCAR-4 ovarian, in the assay on SK-MEL-2 melanoma, in the assay with HS 578T breast and with EKVX NSCLC was over 10 µM in each case. Further, the TGI in the assay on ACHN renal was over 10 µM.

As to `CCCN(CCC)c1c([N+](=O)[O-])cc(C(=O)N(C)C)cc1[N+](=O)[O-]`, the TGI is 86.8 µM in the assay on HL-60(TB) leukemia; 29.4 µM in the assay on OVCAR-4 ovarian; over 100 µM in the assay with SK-MEL-2 melanoma; over 100 µM with NCI-H522 lung; over 100 µM in the assay on CAKI-1 renal; over 100 µM in the assay on EKVX NSCLC. In the assay with ACHN renal, this compound displayed a TGI of 30.7 µM.

Take `O=C1OC(C(O)C(O)C(O)CO)C(O)C1O` (stereo not given): the TGI with HL-60(TB) leukemia, in the assay with OVCAR-4 ovarian, in the assay with SK-MEL-2 melanoma, in the assay with NCI-H522 lung, with HS 578T breast and in the assay on CAKI-1 renal was over 100 µM in each case. Besides, the TGI with EKVX NSCLC, in the assay on ACHN renal and with MDA-MB-231 breast was over 100 µM each time.

With `COC(=O)C(N)CCCC(N)C(=O)NC(C)C(=O)NC(CCC(=O)NCCCNc1ccc([N+](=O)[O-])c2[nH]c3ccccc3c(=O)c12)C(N)=O` (stereo not given), the TGI in the assay on OVCAR-4 ovarian stood at 20.2 µM; with SK-MEL-2 melanoma, 46.2 µM; with CAKI-1 renal it was 19.8 µM; with EKVX NSCLC, 20.2 µM; with ACHN renal, 16.2 µM; in the assay on MDA-MB-231 breast it was 28.8 µM.

Take `CCOC(=O)CCC(NC(=O)c1ccc(NCc2ccc3nc(-c4ccccc4)c(Cl)nc3c2)c2ccccc12)C(=O)OCC` (stereo not given): the TGI in the assay with MDA-N, with OVCAR-4 ovarian, with SK-MEL-2 melanoma, in the assay on NCI-H522 lung, in the assay on CAKI-1 renal and with EKVX NSCLC was over 100 µM throughout. The TGI in the assay with ACHN renal and in the assay on MDA-MB-231 breast was over 100 µM each time.

Regarding `C/C(=C/c1c(C)[nH]c(=O)[nH]c1=O)C(=O)O`, the TGI with HL-60(TB) leukemia, in the assay with OVCAR-4 ovarian, in the assay on SK-MEL-2 melanoma, in the assay on NCI-H522 lung, in the assay on CAKI-1 renal and with EKVX NSCLC was over 1380 µM each time. The GI50 in the assay with SK-MEL-2 melanoma was over 1380 µM; in the assay with EKVX NSCLC it was 1030 µM.

With `Cc1oc2c(C)c3oc(=O)cc(C)c3cc2c1CN`, the TGI in the assay with HL-60(TB) leukemia, with OVCAR-4 ovarian, in the assay on SK-MEL-2 melanoma, in the assay with NCI-H522 lung, with EKVX NSCLC and in the assay on ACHN renal was over 100 µM in each case.

As for `Cn1c(=O)c2[nH]c(-n3nc(-c4ccccc4)cc3N)nc2n(C)c1=O`, the TGI in the assay on MDA-N was over 100 µM; in the assay with HL-60(TB) leukemia, 61.2 µM; in the assay with OVCAR-4 ovarian it was 93.5 µM; in the assay on SK-MEL-2 melanoma, 47.2 µM; in the assay on CAKI-1 renal it was 15 µM; in the assay with EKVX NSCLC, over 100 µM. Besides, the TGI was 37 µM in the assay with ACHN renal and over 100 µM with MDA-MB-231 breast.

Turning to `CC(C)C[C@H](NC(=O)[C@H](CCc1ccccc1)NC(=O)c1ccc2ccccc2n1)B(O)O`, the TGI is 0.0955 µM in the assay with HL-60(TB) leukemia; 3.09 µM in the assay with OVCAR-4 ovarian; 0.0407 µM in the assay on SK-MEL-2 melanoma; under 0.0405 µM in the assay on NCI-H522 lung; 0.442 µM with HS 578T breast; 4.73 µM in the assay with CAKI-1 renal. Also, the figures for the TGI with EKVX NSCLC, in the assay on ACHN renal and in the assay with MDA-MB-231 breast were 3.27 µM, 0.176 µM and 0.305 µM, respectively.

Consider `COC1CCC(n2c([C@@H]3CCCC(=O)N3c3ccc(F)c(F)c3)nc3cc(-c4c(C)noc4C)ccc32)CC1` (stereo not given in full), for which the GI50 was 0.851 µM with HL-60(TB) leukemia; 0.782 µM in the assay with OVCAR-4 ovarian; 11.4 µM with SK-MEL-2 melanoma; 2.93 µM in the assay on NCI-H522 lung; 2.1 µM with HS 578T breast; 0.64 µM in the assay on CAKI-1 renal. Besides, the GI50 in the assay with EKVX NSCLC is 3.97 µM; in the assay on ACHN renal it was 4.78 µM; in the assay with MDA-MB-231 breast, 8.46 µM. Further, the TGI in the assay with HL-60(TB) leukemia worked out at 36.4 µM; in the assay on OVCAR-4 ovarian, 26.5 µM; with SK-MEL-2 melanoma, 35.5 µM; in the assay with NCI-H522 lung, 19.8 µM; in the assay on HS 578T breast, 9.86 µM; in the assay with CAKI-1 renal, 12.7 µM. Also, the TGI is over 100 µM in the assay with EKVX NSCLC, 21.1 µM in the assay on ACHN renal and 26 µM with MDA-MB-231 breast.

On to `CCCCNCC(O)c1cc(-c2ccc(C(F)(F)F)cc2)nc(-c2ccc(C(F)(F)F)cc2)c1` (stereo not given), for which the GI50 was 2.11 µM in the assay on OVCAR-4 ovarian, 2.46 µM with SK-MEL-2 melanoma, 1.8 µM with NCI-H522 lung and 1.71 µM with CAKI-1 renal. Also, the TGI worked out at 3.93 µM in the assay with OVCAR-4 ovarian, 4.33 µM in the assay on SK-MEL-2 melanoma, 3.53 µM with NCI-H522 lung and 3.41 µM in the assay with CAKI-1 renal.

In the case of `Cc1ccc(Nc2ccc(Nc3ccc(C)cc3S(=O)(=O)O)c3c2C(=O)c2ccccc2C3=O)c(S(=O)(=O)O)c1`, the TGI with HL-60(TB) leukemia, in the assay on OVCAR-4 ovarian, in the assay with SK-MEL-2 melanoma, in the assay on NCI-H522 lung, in the assay on CAKI-1 renal and with EKVX NSCLC was over 100 µM each time. The TGI in the assay with ACHN renal is over 100 µM.
